Source: patent publication US20060009441A1, “Human trace amine associated receptors” (priority 2004, published 2006)
Like-named read-outs stand apart in the source and are kept apart here.

Target: Human TAAR 1 (Homo sapiens, UniProt Q96RJ0)
Assay: cAMP Biotrak EIA functional assay in HEK293 cells stably expressing hTAAR1
Format: cell-based
Settings: for Emax: HEK293, read-out: Max (maximal response as percentage of the maximal cAMP levels induced by p-TYR)
[1] = cAMP production in HEK293 cells stably expressing human TAAR 1 (chimera with rat TAAR 1 N-/C-terminus and 3rd intracellular loop, HA leader), means of at least three independent experiments

Sequence of Human TAAR 1 (Q96RJ0 with tags, fused parts or gaps): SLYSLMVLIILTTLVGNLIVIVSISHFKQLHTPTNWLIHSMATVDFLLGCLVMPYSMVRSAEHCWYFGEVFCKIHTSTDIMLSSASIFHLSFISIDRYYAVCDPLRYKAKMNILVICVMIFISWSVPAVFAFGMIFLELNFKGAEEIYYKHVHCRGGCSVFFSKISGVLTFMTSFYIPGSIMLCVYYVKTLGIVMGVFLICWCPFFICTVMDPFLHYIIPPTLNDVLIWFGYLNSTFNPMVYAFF
Sequence of Human TAAR 1 (Q923Y9 with tags, fused parts or gaps partner): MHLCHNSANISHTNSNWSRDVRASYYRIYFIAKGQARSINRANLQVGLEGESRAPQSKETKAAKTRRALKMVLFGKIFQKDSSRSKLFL

Row | Compound | Emax | EC50 [1] | Max (maximal response as percentage of the maximal cAMP levels induced by p-TYR) | EC50
1 | NCCc1ccc(O)c(O)c1 [Dopamine, dopamine] | 50% | – | – | –
2 | NCCc1c[nH]cn1 [Histamine, histamine] | – | > 50000 nM | – | –
3 | CNCCc1ccc(O)cc1 [N-methyl-p-tyramine] | – | 2050 nM | 100% | –
4 | CNCCc1ccccc1 [N-methyl-β-PEA] | – | 160 nM | 100% | –
5 | NC[C@H](O)c1ccc(O)c(O)c1 [Norepinephrine, norepinephrine] | – | > 50000 nM | – | –
6 | NCC(O)c1ccc(O)cc1 (stereo not shown) [OCT, octopamine] | 100% | 10300 nM | – | –
7 | NCCc1c[nH]c2ccc(O)cc12 [Serotonin, 5-HT, Serotonin] | – | > 50000 nM | – | –
8 | NCCc1c[nH]c2ccccc12 [TRY, tryptamine] | 100% | 46900 nM | – | –
9 | NCCc1ccc(O)cc1 [p-TYR, p-tyramine] | – | – | 100% | 1070 nM
10 | NCCc1ccccc1 [β-PEA, β-phenylethylamine] | 100% | 300 nM | – | –
